The text below walks through data of ChEMBL document CHEMBL5042526, “Design, Synthesis, and Biological Evaluation of Triazolone Derivatives as Potent PPARα/δ Dual Agonists for the Treatment of Nonalcoholic Steatohepatitis” (J Med Chem, 2022).

Test [1] relates to Mus musculus. Kind of test: In vivo agonist activity at PPARalpha/delta assessed as upregulation of Gpd1 mRNA expression in C57BL/6Nifdc mouse liver at 10 mg/kg, po for 4 days. Format: functional, organism-based. The settings on record: time 4.0 day.
Test [2] deals with C2C12. Kind of test: Agonist activity against PPARalpha/delta (unknown origin) assessed as upregulation of Pdk4 mRNA expression in […] cells at 8 nM incubated for 12 hrs by RT-PCR analysis. In kind it is cell-based. The settings on record: filed as agonist.
Test [3] deals with T1, Peroxisome proliferator-activated receptor gamma (Mus musculus, UniProt P37238).
T1 sequence (P37238 whole entry): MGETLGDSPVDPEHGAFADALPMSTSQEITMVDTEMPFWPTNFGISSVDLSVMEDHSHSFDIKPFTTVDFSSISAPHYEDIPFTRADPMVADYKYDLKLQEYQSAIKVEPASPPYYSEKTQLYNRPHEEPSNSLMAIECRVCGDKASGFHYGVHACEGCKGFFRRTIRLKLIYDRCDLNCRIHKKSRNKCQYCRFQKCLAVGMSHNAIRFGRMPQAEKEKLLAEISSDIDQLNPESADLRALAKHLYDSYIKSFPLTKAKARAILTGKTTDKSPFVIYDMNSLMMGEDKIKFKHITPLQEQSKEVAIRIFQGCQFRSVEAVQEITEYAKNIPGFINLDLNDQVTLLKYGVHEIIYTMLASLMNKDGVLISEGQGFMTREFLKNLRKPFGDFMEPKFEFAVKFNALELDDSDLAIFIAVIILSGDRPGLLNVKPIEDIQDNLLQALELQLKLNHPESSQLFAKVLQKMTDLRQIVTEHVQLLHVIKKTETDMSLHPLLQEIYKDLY
Kind of test: Agonist activity at mouse PPARgamma in Cos7 cells transfected with pBIND and pGL4.35 Gal4 UAS Luc reporter plasmid by measuring luciferase activity incubated for 16 hrs by luciferase reporter gene assay. In general terms: Reporter assays use an easily measured gene product as a stand-in for the process of interest.

Test [4] has as its system Mus musculus. Kind of test: In vivo agonist activity at PPARalpha/delta assessed as upregulation of Hmgcs2 mRNA expression in C57BL/6Nifdc mouse liver at 10 mg/kg, po for 4 days. In kind it is functional, organism-based. The settings on record: time 4.0 day.
In test [5] the test system is Mus musculus. The test is described as follows: Anti-NASH activity in HF-CDAA-induced nonalcoholic steatohepatitis C57BL/6JNifdc mouse model assessed as reduction in steatosis by measuring hepatic total cholesterol level at 3 to 30 mg/kg, po. In kind it is functional, organism-based. The settings on record: dose 3-30 mg/kg.
Test [6] relates to Mus musculus. The test is described as follows: In vivo agonist activity at PPARalpha/delta assessed as upregulation of -Ehhadh mRNA expression in C57BL/6Nifdc mouse liver at 10 mg/kg, po for 4 days. In kind it is functional, organism-based. The following applies: time 4.0 day.
The test system of test [7] is Mus musculus. Kind of test: In vivo agonist activity at PPARalpha/delta assessed as upregulation of Acadm-mRNA expression in C57BL/6Nifdc mouse liver at 10 mg/kg, po for 4 days. Format: functional, organism-based. The following applies: time 4.0 day.
The subject of test [8] is Mus musculus. The test is described as follows: Anti-NASH activity in HF-CDAA-induced nonalcoholic steatohepatitis C57BL/6JNifdc mouse model assessed as lipid number at 3 to 30 mg/kg, po by H and E staining method. In kind it is functional, organism-based. The following applies: dose 3-30 mg/kg.
Test [9] deals with Mus musculus. Kind of test: Anti-NASH activity in HF-CDAA-induced nonalcoholic steatohepatitis C57BL/6JNifdc mouse model assessed as lipid drop size at 3 to 30 mg/kg, po by H and E staining method. Format: functional, organism-based. The settings on record: dose 3-30 mg/kg.
In test [10] the test system is Mus musculus. Kind of test: In vivo agonist activity against PPARalpha/delta assessed as upregulation of Abca1 mRNA expression in C57BL/6Nifdc mouse skeletal muscle at 10 mg/kg, po for 4 days. In kind it is functional, organism-based. The settings on record: time 4.0 day.
For test [11], the system named is C2C12. The test is described as follows: Agonist activity against PPARalpha/delta (unknown origin) assessed as upregulation of Cpt1A mRNA expression in […] cells at 8 nM incubated for 12 hrs by RT-PCR analysis. Format: cell-based. The following applies: filed as agonist.
A further test relates to COS7. Kind of test: Agonist activity at human CAR (48 to 324 residues) in Cos7 cells transfected with LBD-Gal4 and pGL435 Gal4 UAS Luc reporter plasmid at 10 uM by reporter gene assay. In kind it is cell-based.
Test [12] deals with Mus musculus. Kind of test: Anti-NASH activity in HF-CDAA-induced nonalcoholic steatohepatitis C57BL/6JNifdc mouse model assessed as decrease in level of serum ALT 10 mg/kg, po by automatic biochemical analysis. In kind it is functional, organism-based.
For test [13], the system named is Mus musculus. The test is described as follows: Anti-inflammatory activity in HF-CDAA-induced nonalcoholic steatohepatitis C57BL/6JNifdc mouse model assessed as decrease in Tnf mRNA expression at 10 mg/kg, po. Format: functional, organism-based.
Test [14] has as its system AML12. The test is described as follows: Agonist activity against PPARalpha/delta (unknown origin) assessed as upregulation of Pdk4 mRNA expression in […] cells at 8 nM incubated for 12 hrs by RT-PCR analysis. The settings on record: filed as agonist. Format: cell-based.
Test [15] has as its system Mus musculus. Kind of test: In vivo agonist activity against PPARalpha/delta assessed as upregulation of Cd36 mRNA expression in C57BL/6Nifdc mouse liver at 10 mg/kg, po for 4 days. Format: functional, organism-based. The settings on record: time 4.0 day.
The test system of test [16] is Mus musculus. The test is described as follows: In vivo agonist activity against PPARalpha/delta assessed as upregulation of Cpt1b mRNA expression in C57BL/6Nifdc mouse skeletal muscle at 10 mg/kg, po for 4 days. In kind it is functional, organism-based. The settings on record: time 4.0 day.
In test [17] the test system is AML12. The test is described as follows: Agonist activity against PPARalpha/delta (unknown origin) assessed as upregulation of Pdk4 mRNA expression in […] cells incubated for 12 hrs by RT-PCR analysis. The following applies: filed as agonist, dose 8-200 nM. In kind it is cell-based.
Test [18] concerns Mus musculus. Kind of test: In vivo agonist activity against PPARalpha/delta assessed as upregulation of Hilpda-mRNA expression in C57BL/6Nifdc mouse liver at 10 mg/kg, po for 4 days. The following applies: time 4.0 day. In kind it is functional, organism-based.
Test [19] deals with T2, Peroxisome proliferator-activated receptor delta (Mus musculus, UniProt P35396).
T2 sequence (P35396 whole entry): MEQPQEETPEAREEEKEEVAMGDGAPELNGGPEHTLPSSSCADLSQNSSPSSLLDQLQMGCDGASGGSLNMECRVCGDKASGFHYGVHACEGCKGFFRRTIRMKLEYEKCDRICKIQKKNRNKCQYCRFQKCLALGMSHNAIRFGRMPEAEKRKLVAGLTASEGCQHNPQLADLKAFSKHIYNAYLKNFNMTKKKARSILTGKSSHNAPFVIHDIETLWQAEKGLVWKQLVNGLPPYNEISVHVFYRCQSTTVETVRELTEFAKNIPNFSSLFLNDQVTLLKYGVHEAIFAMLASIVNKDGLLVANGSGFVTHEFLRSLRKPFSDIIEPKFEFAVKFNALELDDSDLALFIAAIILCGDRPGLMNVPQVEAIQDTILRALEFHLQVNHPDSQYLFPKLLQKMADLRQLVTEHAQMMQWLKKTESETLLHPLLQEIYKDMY
The test is described as follows: Agonist activity at mouse PPARdelta in Cos7 cells transfected with pBIND and pGL4.35 Gal4 UAS Luc reporter plasmid by measuring luciferase activity incubated for 16 hrs by luciferase reporter gene assay.

For test [20], the system named is Mus musculus. Kind of test: In vivo agonist activity at PPARalpha/delta assessed as upregulation of Lpf5 mRNA expression in C57BL/6Nifdc mouse liver at 10 mg/kg, po for 4 days. In kind it is functional, organism-based. The following applies: time 4.0 day.
For test [21], the system named is Mus musculus. The test is described as follows: Anti-fibrosis effect in CCl4 induced liver fibrosis C57BL/6JNifdc mouse model by measuring serum triglyceride level at 3 to 30 mg/kg, po. The settings on record: dose 3-30 mg/kg. In kind it is functional, organism-based.
In another test the test system is HepG2. Kind of test: Agonist activity against PPARalpha/delta (unknown origin) assessed as upregulation of CPT1A mRNA expression in human HepG2 cells incubated for 12 hrs by RT-PCR analysis. Format: cell-based. The following applies: filed as agonist, dose 8-200 nM.

SMILES strings stand for the structures. Calls of active or inactive are those of the source. No cut-off for these calls is given here.

As to `Cc1cc(Cn2ncn(-c3ccc(OC(F)(F)F)cc3)c2=O)cc(C)c1OC(C)(C)C(=O)O`, the result in the test on Mus musculus [1], in the test on C2C12 [2], in the test with Mus musculus [4], with Mus musculus [5], with Mus musculus [6] and in the test with Mus musculus [7] was Active. In addition, the result in the test on Mus musculus [8], in the test with Mus musculus [9], in the test with Mus musculus [10], with C2C12 [11], in the test with Mus musculus [12] and with Mus musculus [13] was Active. The outcome with AML12 [14], in the test with Mus musculus [15], in the test on Mus musculus [16], in the test on Mus musculus [18], in the test with Mus musculus [20] and in the test on Mus musculus [21] was Active. Besides, the results for the EC50 in [3] and in [19] were 1.01 µM and 0.0197 µM, respectively. Also, the result with COS7 was inactive. The Activity entry with AML12 [17] and in the test on HepG2 was “Dose-Dependent Effect” in each case.

The term EC50 denotes the concentration giving half of the maximal effect. Low values mean an effect from little substance, high ones a need for much substance.
